# Results reported in a melting point compilation (Tetko et al.; mined from patent text by program, amines drawn as free bases though some values may be those of a salt).
row,melting point [°C],SMILES
1,110 to 112,CCOC(=O)c1c(-c2cccc([N+](=O)[O-])c2)cc(-c2ccccc2)nc1C
2,119 to 120,Cc1oc(-c2ccco2)nc1COc1ccc(COc2nn(Cc3ccccc3)cc2CO)cc1Cl
3,137 to 139,CCC1(CO)C=NC(c2nn(Cc3ccccc3F)c3ccccc23)O1 (stereo not drawn)
4,117 to 120,Nc1nc(NCCc2ccc(Cl)cc2)sc1C(=O)c1ccccc1[N+](=O)[O-]
5,234 to 235,CN(c1cccc2cc(-c3ncc(CCC(=O)O)s3)[nH]c12)S(=O)(=O)c1cccs1
6,150 to 151,CC(C)(C(N)=O)c1ccc(OCc2ccccc2)cc1
7,100 to 102,CON=C(c1ccccc1)c1ccc2c(c1)C(C)(C)CCN2CCOc1ccc(CC(Nc2ccccc2C(=O)c2ccccc2)C(=O)O)cc1 (stereo not drawn)
8,252 to 255,c1ccc(Nc2nnc(-c3cccnc3)s2)cc1
9,188,O=C(O)CN1C(=O)C(=O)N(Cc2cccc([N+](=O)[O-])c2)C1=S
10,259 to 266,CC(=O)c1ccc(C2C(C(=O)c3ccc(C(C)C)cc3)=C(O)C(=O)N2c2ccc(C)nn2)cc1 (stereo not drawn)
11,> 300,O=c1ccc2c(-c3cccc([N+](=O)[O-])c3)nccc2[nH]1
12,165 to 166,COc1cccc(CC(=O)O)c1OCCc1cn(-c2ccc(C(F)(F)F)cn2)nc1C(C)C
13,70,Cc1cc(-n2ccnc2)c2cccc(OCc3c(Cl)ccc(S(=O)(=O)N4CCC[C@H]4C(=O)N(C)CCCN(C)C(=O)OC(C)(C)C)c3Cl)c2n1
14,199 to 201,Cc1nc2c3c(c(C(=O)N(C)C)cc2n1C)CC[C@@H](c1ccccc1F)O3
15,230 to 231,Cc1ccnc(C(=O)c2[nH]c3ccc(Cl)cc3c2CC(=O)O)c1
16,149 to 150,CCCc1c(OCCCSc2ccc(C(=O)CCC(=O)O)c(F)c2)ccc(C(C)=O)c1O
17,100 to 101,CCOC(=O)C(=O)Nc1c([N+](=O)[O-])cc(Cl)cc1C(F)(F)F
18,222 to 223,Cn1c(CC(=O)O)cc(Cl)c1C(=O)c1ccc(S(C)=O)cc1 (stereo not drawn)
19,181,Cc1c2sc3ccccc3nc-2c2ccccc2c1=O
20,103 to 104,COc1ccc(CCOc2cccc(-c3cccc(N)c3)n2)cc1OC

# Second part, the compound before the results:
row,SMILES,melting point [°C]
1,CC(C)Cc1cnc(O)c([N+](=O)[O-])c1,161 to 163
2,CCCCc1c(CNC(=O)OC(C)(C)C)c(CC(C)C)nc2ccc(O)cc12,198 to 200
3,Cc1cccc2c1N=C(Cl)c1cscc1O2,160 to 161
4,NC/C(=C\F)COc1ccc(Cl)cc1Cl,104
5,Fc1cc(F)c(F)c(-c2c(Cl)nc3ncnn3c2Cl)c1,191
6,Cc1ncc(OC2CCCCO2)c(=O)[nH]1 (stereo not drawn),149 to 151
7,CSc1nc(N)c2ncn(C3CCCCC3)c2n1,222 to 224
8,NCCOCC(O)c1ccc2sccc2c1 (stereo not drawn),87 to 90.5
9,CC1=N/C(=C\c2c[nH]c3ncccc23)C(=O)N1CCN1CCOCC1,235 to 240
10,Cn1cc(-c2cccc(N3CCc4c(cc5n4CCCC5)C3=O)c2CO)cc(Nc2ccc(C3CNC3)cn2)c1=O,227 to 229
11,COC(=O)CN(C)C(=S)c1cccc2c(SC(F)(F)F)c(OC)ccc12,121 to 123
12,C1CCc2c(c(N3CCCC3)nn3nnnc23)C1,272 to 273
13,COc1c(N2CC(OC)C(C)(N)C2)c(F)cc2c(=O)c(C(=O)O)cn([C@@H]3C[C@@H]3F)c12 (stereo partly drawn),150 to 151
14,O=c1n(-c2ccccc2)nc2c3c(nc(Cl)n12)CCCC3,205 to 207
15,CC1CC2C3CCC4=CC(=O)C=CC4(C)C3=CCC2(C)C1C(=O)CN1CCN(c2cc(N3CCCC3)nc(NC34CC5CC(CC(C5)C3)C4)n2)CC1 (stereo not drawn),155 to 172
16,COc1cc(CNC(C)=O)c(Br)cc1O,> 300
17,CCCCC1(O)CCN(CC23CC(c4ccccc42)c2ccccc23)CC1,194 to 196
18,Fc1ccc(Nc2ncnc3cnc(NCC45CCN(CC4)CC5)nc23)cc1Cl,221 to 223
